# Test results: ChEMBL document CHEMBL1201862, “PubChem BioAssay data set” (2004)
#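 1) Cells in 96-well plates. 2) Compound, 48 h, 5 concentrations. 3) Linear interpolation between surrounding doses. 4) Unreached endpoint = highest concentration. GI50: concentration for 50% inhibition of growth.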 The source made the active and inactive calls. Rule as the data show it: active = GI50 up to about 1.1 µM and inactive = higher.
# Legend:
# Experiment in all cases: DTP human tumour cell line panel, 48 h
# NCI-H23 = tested on: NCI-H23
# UACC-257 = tested on: UACC-257
# TK-10 = tested on: TK-10
# NCI-H226 = tested on: NCI-H226
# HCT-15 = tested on: HCT-15
# SK-MEL-5 = tested on: SK-MEL-5
# HOP-62 = tested on: HOP-62
# KM12 = tested on: KM12
# RPMI-8226 = tested on: RPMI-8226
# SK-MEL-2 = tested on: SK-MEL-2
# NCI-H522 = tested on: NCI-H522
# U-251 = tested on: U-251
# 786-0 = tested on: 786-0
# UACC-62 = tested on: UACC-62
# SF-539 = tested on: SF-539
# HCT-116 = tested on: HCT-116
Structure (SMILES),GI50 (NCI-H23),GI50 (UACC-257),GI50 (TK-10),GI50 (NCI-H226),GI50 (HCT-15) [µM],GI50 (SK-MEL-5),GI50 (HOP-62),GI50 (KM12),GI50 (RPMI-8226),GI50 (SK-MEL-2),GI50 (NCI-H522),GI50 (U-251),GI50 (786-0),GI50 (UACC-62),GI50 (SF-539),GI50 (HCT-116)
COc1cc(C=C2C(=O)NC(=O)NC2=O)cc(OC)c1OC,> 100 µM (inactive),> 100 µM (inactive),> 100 µM (inactive),> 100 µM (inactive),> 100,> 100 µM (inactive),> 100 µM (inactive),> 100 µM (inactive),> 100 µM (inactive),> 100 µM (inactive),> 100 µM (inactive),> 100 µM (inactive),> 100 µM (inactive),> 100 µM (inactive),> 100 µM (inactive),> 100 µM (inactive)
CNC(=O)CN(CC(N)=O)C(N)=O,> 100 µM (inactive),–,> 100 µM (inactive),> 100 µM (inactive),> 100,> 100 µM (inactive),> 100 µM (inactive),> 100 µM (inactive),> 100 µM (inactive),> 100 µM (inactive),> 100 µM (inactive),> 100 µM (inactive),> 100 µM (inactive),> 100 µM (inactive),> 100 µM (inactive),–
CCOC(=O)C12CN(C34CC5CC(CC(C5)C3)C4)CC(C(=O)OCC)(C1=O)C(c1ccccc1)OC2c1ccccc1 (stereo unspecified),47.4 µM (inactive),> 100 µM (inactive),> 100 µM (inactive),89.7 µM (inactive),> 100,94.8 µM (inactive),> 100 µM (inactive),> 100 µM (inactive),16.5 µM (inactive),> 100 µM (inactive),–,> 100 µM (inactive),> 100 µM (inactive),> 100 µM (inactive),> 10 µM (inactive),> 10 µM (inactive)
CCOC(=O)C(C(CC(=O)OC)NC(=O)OCc1ccccc1)C1(C)OCCO1 (stereo unspecified),> 100 µM (inactive),> 100 µM (inactive),> 100 µM (inactive),> 100 µM (inactive),> 100,> 100 µM (inactive),> 100 µM (inactive),–,> 100 µM (inactive),> 100 µM (inactive),–,> 100 µM (inactive),> 100 µM (inactive),> 100 µM (inactive),> 100 µM (inactive),> 100 µM (inactive)
CCCCN(CCCC)C(=Nc1ccccc1)N(CCCC)CCCC,2.19 µM (inactive),7.41 µM (inactive),10.1 µM (inactive),–,–,–,6.87 µM (inactive),3.7 µM (inactive),1.8 µM (inactive),6.64 µM (inactive),2.17 µM (inactive),1.95 µM (inactive),3.3 µM (inactive),–,11.4 µM (inactive),1.67 µM (inactive)
Nc1n/c(=N\c2ccccc2)ss1,> 100 µM (inactive),> 100 µM (inactive),> 100 µM (inactive),> 100 µM (inactive),–,> 100 µM (inactive),> 100 µM (inactive),> 100 µM (inactive),> 100 µM (inactive),–,> 100 µM (inactive),> 100 µM (inactive),> 100 µM (inactive),> 100 µM (inactive),> 100 µM (inactive),> 100 µM (inactive)
O=C(c1ccccc1)C1S(=O)(=O)OCCOS1(=O)=O,> 100 µM (inactive),> 100 µM (inactive),> 100 µM (inactive),–,–,> 100 µM (inactive),> 100 µM (inactive),> 100 µM (inactive),> 100 µM (inactive),> 100 µM (inactive),> 100 µM (inactive),–,> 100 µM (inactive),> 100 µM (inactive),> 100 µM (inactive),> 100 µM (inactive)
Cc1ccc(NC(=O)OCC(COc2ccc(Cl)cc2Cl)OC(=O)Nc2ccc(C)cc2)cc1 (stereo unspecified),> 100 µM (inactive),> 100 µM (inactive),–,46.3 µM (inactive),> 100,–,> 100 µM (inactive),> 100 µM (inactive),> 100 µM (inactive),> 100 µM (inactive),–,34.8 µM (inactive),64.6 µM (inactive),> 100 µM (inactive),89.5 µM (inactive),> 100 µM (inactive)
CC(=O)OCCOCBr,–,> 100 µM (inactive),> 100 µM (inactive),> 100 µM (inactive),> 100,> 100 µM (inactive),> 100 µM (inactive),> 100 µM (inactive),> 100 µM (inactive),> 100 µM (inactive),> 100 µM (inactive),> 100 µM (inactive),> 100 µM (inactive),> 100 µM (inactive),> 100 µM (inactive),> 100 µM (inactive)
CCOC(=O)CC(=O)Sc1ccccc1,24.5 µM (inactive),28.1 µM (inactive),38.3 µM (inactive),27.2 µM (inactive),–,17.3 µM (inactive),27.1 µM (inactive),25.6 µM (inactive),17.7 µM (inactive),25.4 µM (inactive),11.8 µM (inactive),12.4 µM (inactive),19.1 µM (inactive),16 µM (inactive),14 µM (inactive),12.6 µM (inactive)
COc1ccccc1NC(=O)CC(=O)n1nc(C)c(/N=N/c2ccccc2C(=O)O)c1C,88.9 µM (inactive),> 100 µM (inactive),> 100 µM (inactive),–,> 100,68.1 µM (inactive),85.9 µM (inactive),> 100 µM (inactive),> 100 µM (inactive),> 100 µM (inactive),43.9 µM (inactive),95.7 µM (inactive),> 100 µM (inactive),59.7 µM (inactive),> 100 µM (inactive),> 100 µM (inactive)
Cc1ccc(/C=N/NS(=O)(=O)c2ccccc2)cc1C,> 100 µM (inactive),> 100 µM (inactive),> 100 µM (inactive),> 100 µM (inactive),> 100,> 100 µM (inactive),> 100 µM (inactive),> 100 µM (inactive),> 100 µM (inactive),> 100 µM (inactive),–,> 100 µM (inactive),> 100 µM (inactive),98.9 µM (inactive),> 100 µM (inactive),76 µM (inactive)
CC(=O)OCCC(O[Si](c1ccccc1)(c1ccccc1)C(C)(C)C)C(C)(C)O (stereo unspecified),24.7 µM (inactive),26.5 µM (inactive),34.4 µM (inactive),19.5 µM (inactive),31.1,51.6 µM (inactive),–,23.3 µM (inactive),23.9 µM (inactive),75 µM (inactive),20 µM (inactive),36.3 µM (inactive),27.4 µM (inactive),53.8 µM (inactive),25.4 µM (inactive),17.3 µM (inactive)
CCCCCOCC(O)CO (stereo unspecified),> 100 µM (inactive),> 100 µM (inactive),> 100 µM (inactive),> 100 µM (inactive),> 100,> 100 µM (inactive),> 100 µM (inactive),> 100 µM (inactive),–,> 100 µM (inactive),–,> 100 µM (inactive),> 100 µM (inactive),> 100 µM (inactive),> 100 µM (inactive),> 100 µM (inactive)
COC(=O)c1nc(NC#N)nc(O)c1C,> 78.7 µM (inactive),> 100 µM (inactive),> 100 µM (inactive),–,> 87.3,> 100 µM (inactive),> 100 µM (inactive),> 100 µM (inactive),98.9 µM (inactive),> 100 µM (inactive),> 80.4 µM (inactive),> 85.7 µM (inactive),> 100 µM (inactive),> 61.1 µM (inactive),> 55.8 µM (inactive),> 61.1 µM (inactive)
N#CC(C(=O)CCC(=O)Nc1ccc(Cl)c(Cl)c1)c1ccc(Cl)cc1 (stereo unspecified),> 100 µM (inactive),> 100 µM (inactive),> 100 µM (inactive),> 100 µM (inactive),17.1,65.6 µM (inactive),> 100 µM (inactive),47.5 µM (inactive),48.2 µM (inactive),22.9 µM (inactive),–,> 100 µM (inactive),> 100 µM (inactive),11.6 µM (inactive),> 100 µM (inactive),> 100 µM (inactive)
CCOc1ccc(NC(=O)C2=C(C)NC(C)=C(C(=O)Nc3ccc(OCC)cc3)C2c2ccc([N+](=O)[O-])cc2)cc1,28.2 µM (inactive),39.2 µM (inactive),17.9 µM (inactive),26.8 µM (inactive),–,15.3 µM (inactive),36.1 µM (inactive),29.9 µM (inactive),13.8 µM (inactive),16.2 µM (inactive),22.6 µM (inactive),27.8 µM (inactive),29.3 µM (inactive),–,24.3 µM (inactive),–
O=C1C2CCC(C2)C12CC1(c3ccccc3)C(=O)c3ccccc3N1O2 (stereo unspecified),> 100 µM (inactive),> 100 µM (inactive),–,> 100 µM (inactive),> 100,> 100 µM (inactive),> 100 µM (inactive),–,58.9 µM (inactive),–,> 100 µM (inactive),> 100 µM (inactive),> 100 µM (inactive),91.8 µM (inactive),> 100 µM (inactive),> 100 µM (inactive)
O=c1[nH]c(=O)n(C2OC(CO)C(O)C2O)cc1OCC(F)(F)F (stereo unspecified),> 100 µM (inactive),> 100 µM (inactive),> 100 µM (inactive),> 100 µM (inactive),> 100,> 100 µM (inactive),> 100 µM (inactive),> 100 µM (inactive),> 100 µM (inactive),> 100 µM (inactive),> 100 µM (inactive),> 100 µM (inactive),> 100 µM (inactive),> 100 µM (inactive),> 100 µM (inactive),> 100 µM (inactive)
CC/C=C/c1cc2cc[nH]c2c2c1C(C)C[C@@H]2C (stereo partly specified),21.4 µM (inactive),32.8 µM (inactive),53.6 µM (inactive),15.1 µM (inactive),22.5,21.6 µM (inactive),–,19.8 µM (inactive),21.6 µM (inactive),–,18.1 µM (inactive),23.4 µM (inactive),18.9 µM (inactive),17.8 µM (inactive),21.8 µM (inactive),15.7 µM (inactive)
